target: T1, Human IDO1 (Homo sapiens, UniProt P14902); assay: IDO Kynurenine Assay with Human IDO1/HEK293 Cells; type: cell-based; details: read-out: HEK human IDO-1 (IC50)
T1 construct: expressed in transfected cells; host or cells: HEK293
Experimental: IDO Kynurenine Assay with Human IDO1/HEK293 Cells
Human IDO1/HEK293 cells were seeded at 10,000 cells per 50 uL per well with RPMI/phenol red free media contains 10% FBS in a 384-well black wall clear bottom tissue culture plate (Matrix Technologies LLC) 125 nL of certain concentration of compound was then added to each well using ECHO liquid handling systems. The cells were incubated for 20 hours in 37° C. incubator with 5% CO2.
The compound treatments were stopped by adding Trichloroacetic Acid (Sigma-Aldrich) to a final concentration at 0.2%. The cell plate was further incubated at 50° C. for 30 minute. The equal volume supernatant (20 uL) and 0.2% (w/v) Ehrlich reagent (4-dimethylaminobenzaldehyde, Sigma-Aldrich) in glacial acetic acid were mixed in a new clear bottom 384-well plate. This plate was then incubated at room temperature for 30 minute. The absorbance at 490 nm was measured on Envision plate reader.
Compound IC50 values were calculated using the counts of 500 nM of a reference standard treatment as one hundred percent inhibition, and counts of no compound but DMSO treatment as zero percent inhibition.

T1 sequence (P14902 whole entry): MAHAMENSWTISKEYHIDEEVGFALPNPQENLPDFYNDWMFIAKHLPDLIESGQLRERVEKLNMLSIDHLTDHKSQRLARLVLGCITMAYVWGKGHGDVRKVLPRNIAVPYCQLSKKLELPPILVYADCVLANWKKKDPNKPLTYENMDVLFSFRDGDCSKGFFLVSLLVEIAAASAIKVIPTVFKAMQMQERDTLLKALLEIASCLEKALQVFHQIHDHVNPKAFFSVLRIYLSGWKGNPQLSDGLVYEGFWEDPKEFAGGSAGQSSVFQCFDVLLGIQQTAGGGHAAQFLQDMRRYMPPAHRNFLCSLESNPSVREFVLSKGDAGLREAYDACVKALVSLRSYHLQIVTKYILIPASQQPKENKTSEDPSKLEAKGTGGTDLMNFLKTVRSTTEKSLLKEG

Row | IC50 [nM] | Structure (SMILES)
1 | 370 | CC(C)CN(CC(C)C)c1ccc(-c2ccccc2-c2nnn[nH]2)cc1NC(=O)Nc1ccc(CC#N)cc1 [Example 457]
2 | 1.89 | C=C(C)CN(CCCC(F)(F)F)c1ccc(-c2ccccc2-c2nnn[nH]2)cc1NC(=O)Nc1ccc(C)cc1 [Example 417]

Continued, compound first:

Row | Structure (SMILES) | IC50 [nM]
3 | Cc1cc(NC(=O)Nc2cc(-c3ccccc3C(=O)O)ccc2N(CC(C)C)C2CCCCC2)on1 [Example 377] | 1.68
4 | C=C(C)CN(CCCC(F)(F)F)c1ccc(-c2cc(F)ccc2C(=O)O)cc1NC(=O)Nc1ccc(C)cc1 [Example 419] | 5.08
5 | CC(C)CN(c1c(F)cc(-c2ccccc2C(=O)O)cc1NC(=O)Nc1ccccc1F)C1CCCCC1 [Example 432] | 1.82
6 | CC(C)CN(c1cc(F)c(-c2cc(F)ccc2C(=O)O)cc1NC(=O)Nc1ccnnc1)C1CCCCC1 [Example 402] | 4830

target: IDO (Homo sapiens, UniProt P14902); assay: LLE_IDO_ABS_DR (IDO assay); details: not given
Sequence (P14902 whole entry): as above

Row | IC50 [nM] | Structure (SMILES)
7 | 0.76 | CC(C)CN(CC(C)C)c1ccc(-c2ccccc2-c2nnn[nH]2)cc1NC(=O)Nc1c(F)cc(Cl)cc1F [Example 243, 1-(4-chloro-2,6-difluorophenyl)-3-(4-(diisobutylamino)-2′-(1H-tetrazol-5-yl)-[1,1′-biphenyl]-3-yl)urea]
8 | 2490 | CC(C)CN(CC(C)C)c1ccc(-c2ccccc2-c2nnn[nH]2)cc1NC(=O)Nc1cccc(-c2cnco2)c1 [Example 253, 1-(4-(diisobutylamino)-2′-(1H-tetrazol-5-yl)-[1,1′-biphenyl]-3-yl)-3-(3-(oxazol-5-yl)phenyl)urea]
9 | 490 | O=C(Nc1cc(-c2ccccc2-c2nnn[nH]2)ccc1N(CCC(F)(F)F)Cc1ccc(F)cc1C(F)(F)F)Nc1ccccc1C(F)(F)F [Example 338, 1-(4-((4-fluoro-2-(trifluoromethyl)benzyl)(3,3,3-trifluoropropyl)amino)-2′-(1H-tetrazol-5-yl)-[1,1′-biphenyl]-3-yl)-3-(2-(trifluoromethyl)phenyl)urea]
10 | 20 | C#Cc1cccc(NC(=O)Nc2cc(-c3ccccc3-c3nnn[nH]3)ccc2N(CC(C)C)CC(C)C)c1 [Example 241, 1-(4-(diisobutylamino)-2′-(1H-tetrazol-5-yl)-[1,1′-biphenyl]-3-yl)-3-(3-ethynylphenyl)urea]
11 | 90 | Cc1ccc(NC(=O)Nc2cc(-c3ccccc3-c3nnn[nH]3)ccc2N(CCC(F)(F)F)Cc2ccc(F)cc2)cc1 [Example 325, 1-(4-((4-fluorobenzyl)(3,3,3-trifluoropropyl)amino)-2′-(1H-tetrazol-5-yl)-[1,1′-biphenyl]-3-yl)-3-(p-tolyl)urea]
12 | 5060 | O=C(Nc1ccc(F)nc1)Nc1cc(-c2ccccc2-c2nnn[nH]2)ccc1N1CCCc2ccccc21 [Example 365, 1-(4-(3,4-Dihydroquinolin-1(2H)-yl)-2′-(1H-tetrazol-5-yl)-[1,1′-biphenyl]-3-yl)-3-(6-fluoropyridin-3-yl)urea]
13 | 3.24 | CCN(c1ccc(-c2ccccc2-c2nnn[nH]2)cc1NC(=O)Nc1ccc(C)cc1)C1CCCC1 [Example 75, 1-(4-(cyclopentyl(ethyl)amino)-2′-(1H-tetrazol-5-yl)biphenyl-3-yl)-3-p-tolylurea]
14 | 70 | O=C(Nc1ccc(C2CC2)cc1)Nc1cc(-c2ccccc2-c2nnn[nH]2)ccc1N(CCC(F)(F)F)Cc1ccccn1 [Example 304, 1-(4-cyclopropylphenyl)-3-(4-((pyridin-2-ylmethyl)(3,3,3-trifluoropropyl)amino)-2′-(1H-tetrazol-5-yl)-[1,1′-biphenyl]-3-yl)urea]
15 | 30 | Cc1ccc(NC(=O)Nc2cc(-c3ccccc3-c3nnn[nH]3)ccc2N(CC(C)C)CC2CCC2)cc1 [Example 98, 1-(4-((cyclobutylmethyl) (isobutyl)amino)-2′-(1H-tetrazol-5-yl)biphenyl-3-yl)-3-p-tolylurea]
16 | 190 | CC(C)CN(CC(C)C)c1ccc(-c2ccccc2-c2nnn[nH]2)cc1NC(=O)Nc1cccc(N(C)C)c1 [Example 262, 1-(4-(diisobutylamino)-2′-(1H-tetrazol-5-yl)-[1,1′-biphenyl]-3-yl)-3-(3-(dimethylamino)phenyl)urea]
17 | 230 | O=C(Nc1ccc(OC(F)(F)F)cc1)Nc1cc(-c2ccccc2-c2nnn[nH]2)ccc1N(CCC(F)(F)F)Cc1ccccn1 [Example 343, 1-(4-((pyridin-2-ylmethyl)(3,3,3-trifluoropropyl)amino)-2′-(1H-tetrazol-5-yl)-[1,1′-biphenyl]-3-yl)-3-(4-(trifluoromethoxy)phenyl)urea]
18 | 40 | Cc1ccc(NC(=O)Nc2cc(-c3ccccc3-c3nnn[nH]3)ccc2N(CCC(F)(F)F)Cc2ccc(Cl)cc2Cl)cc1 [Example 505, 1-(4-((2,4-Dichlorobenzyl)(3,3,3-trifluoropropyl)amino)-2′-(1H-tetrazol-5-yl)-[1,1′-biphenyl]-3-yl)-3-(p-tolyl)urea]
19 | 2.61 | Cc1ccc(NC(=O)Nc2cc(-c3ccccc3-c3nnn[nH]3)ccc2N(CC(C)C)CC(C)C)c(F)c1 [Example 264, 1-(4-(diisobutylamino)-2′-(1H-tetrazol-5-yl)-[1,1′-biphenyl]-3-yl)-3-(2-fluoro-4-methylphenyl)urea]
20 | 90 | CC(C)CN(CC(C)C)c1ccc(-c2ccccc2-c2nnn[nH]2)cc1NC(=O)Nc1ccc(F)c(Br)c1 [Example 258, 1-(3-bromo-4-fluorophenyl)-3-(4-(diisobutylamino)-2′-(1H-tetrazol-5-yl)-[1,1′-biphenyl]-3-yl)urea]

More lines, now with the values behind:

Row | Structure (SMILES) | IC50 [nM]
21 | CCCN(c1ccc(-c2ccccc2C(=O)O)cc1NC(=O)Nc1ccc(C)cc1)C1CCCCC1 [Example 86, 4′-(cyclohexyl(propyl)amino)-3′-(3-p-tolylureido)biphenyl-2-carboxylic acid] | 4.16
22 | Cc1ccc(NC(=O)Nc2cc(-c3ccccc3NS(=O)(=O)C(F)(F)F)ccc2N(CC(C)C)CC(C)C)cc1 [Example 4, N-(4′-(Diisobutylamino)-3′-(3-p-tolylureido)biphenyl-2-yl)-1,1,1-trifluoromethanesulfonamide] | 80
23 | CCCCN(CCCC)c1ccc(-c2ccccc2C(=O)O)cc1NC(=O)Nc1ccc(C)cc1 [Example 89, 4′-(dibutylamino)-3′-(3-p-tolylureido) biphenyl-2-carboxylic acid] | 50
24 | Cc1ccc(NC(=O)Nc2cc(-c3cc(F)ccc3C(=O)O)ccc2N(C)CC(C)C)cc1 [Example 181, 5-fluoro-4′-(isobutyl(methyl)amino)-3′-(3-(p-tolyl)ureido)-[1,1′-biphenyl]-2-carboxylic acid] | 270
25 | COCCN(Cc1ccc(Cl)cc1)c1ccc(-c2ccccc2C(=O)O)cc1NC(=O)Nc1ccc(C)cc1 [Example 192, 4′-((4-chlorobenzyl)(2-methoxyethyl)amino)-3′-(3-(p-tolyl)ureido)-[1,1′-biphenyl]-2-carboxylic acid] | 7.82
26 | [2H]C([2H])(C(C)C)N(c1ccc(-c2ccccc2C(=O)O)cc1NC(=O)Nc1ccccc1F)C1CCCCC1 [Example 33, 4′-(Cyclohexyl(1,1-dideutero-2-methylpropyl)amino)-3′-(3-(2-fluorophenyl)ureido)biphenyl-2-carboxylic acid] | 4.99
27 | CN(c1ccc(-c2ccccc2C(=O)O)cc1NC(=O)Nc1ccccc1F)c1ccccc1C(C)(C)C [Example 480] | 1840
28 | Cc1ccc(NC(=O)Nc2cc(-c3cc(F)ccc3C(=O)O)ccc2N(CC(C)C)C2CCC2)cc1 [Example 182, 4′-(cyclobutyl(isobutyl)amino)-5-fluoro-3′-(3-(p-tolyl)ureido)-[1,1′-biphenyl]-2-carboxylic acid] | 50
29 | Cc1ccc(NC(=O)Nc2cc(-c3cc(F)ccc3C(=O)O)ccc2N(CC(C)C)CC(F)(F)F)cc1 [Example 476] | 140
30 | Cc1ccc(NC(=O)Nc2cc(-c3ccccc3C(=O)O)cc(F)c2N(CC(C)C)CC(C)C)cc1 [Example 6, 4′-(Diisobutylamino)-3′-fluoro-5′-(3-p-tolylureido)biphenyl-2-carboxylic acid] | 6.47
31 | COc1ccc(-c2ccc(N(C)C3CCCCCC3)c(NC(=O)Nc3ccc(C)cc3)c2)cc1C(=O)O [Example 78, 4′-(cycloheptyl(methyl)amino)-4-methoxy-3′-(3-p-tolylureido)biphenyl-3-carboxylic acid] | 1920
32 | Cc1ccc(NC(=O)Nc2cc(-c3ccccc3C(=O)O)ccc2N(CC2CC2)C2CCCCC2)cc1 [Example 83, 4′-(cyclohexyl (cyclopropylmethyl)amino)-3′-(3-p-tolylureido)biphenyl-2-carboxylic acid] | 20
33 | Cc1ccc(NC(=O)Nc2cc(-c3ccccc3C(=O)O)ccc2N(CC(F)F)C2CCCCC2)cc1 [Example 196, 4′-(cyclohexyl(2,2-difluoroethyl)amino)-3′-(3-(p-tolyl)ureido)-[1,1′-biphenyl]-2-carboxylic acid] | 20
34 | Cc1ccc(NC(=O)Nc2cc(-c3cc(F)ccc3C(=O)O)ccc2N(CCC(C)(C)O)Cc2ccc(Cl)cc2)cc1 [Example 374] | 6840
35 | Cc1ccc(NC(=O)Nc2c(N(CC(C)C)CC(C)C)ccc(-c3ccccc3-c3nnn[nH]3)c2F)cc1 [Example 25, 1-(4-(Diisobutylamino)-2-fluoro-2′-(1H-tetrazol-5-yl)-[1,1′-biphenyl]-3-yl)-3-(p-tolyl)urea] | 30
36 | Cc1ccc(NC(=O)Nc2cc(-c3cc(F)ccc3C(=O)O)ccc2N(CC(C)C)C(C)C)cc1 [Example 149, 5-fluoro-4′-(isobutyl(isopropyl)amino)-3′-(3-p-tolylureido)biphenyl-2-carboxylic acid] | 60

From patent US9758492B2, “IDO inhibitors” (Bristol-Myers Squibb Company, priority 2013, dated 2017)
